From patent publication US9943528B2 (MAPREG, priority 2016, dated 2018)

Legend:
[1] = tested on: Wistar Kyoto (WKY) rats; assay: Elevated-plus maze (EPM) in WKY rats, acute treatment; format: in vivo, rat; settings: MAP4343 10 mg/kg s.c., fluoxetine 10 mg/kg, ketamine 30 mg/kg i.p., FIG. 5D
Method: After a 6-day period of acclimatization, all experimental groups received daily successive subcutaneous (250 μl per rat) and intraperitoneal (1 ml/kg) injections. WI rats received injection of vehicle (sesame oil+saline) while WKY rats were randomly assigned to […] experimental groups, as follow: KWY rats receiving only vehicle (sesame oil+saline) and WKY rats treated with MAP4343 (10 mg/kg, s.c.; rats received in parallel i.p. injections of saline), fluoxetine (10 mg/kg i.p., rats received in parallel s.c. injections of sesame oil) or ketamine (30 mg/kg, i.p.; rats received in parallel s.c. injections of sesame oil) (see FIG. 3).
After, a 6-day period of acclimatization, the acute phase of treatment started for 4 days during behavioral tests were performed (FIG. 3). All animals were injected 1 h 30 before the starting of behavioral test.
We used the elevated-plus maze (EPM) as an assay of anxiety-related behavior in rodents (Walf and Frye, 2007). […] The time spent in the open versus closed arms was blindly measured by two independent experimenters from the recorded video, and the open arm-index was calculated as follow: time in the open arms (sec)/[time in open arms (sec)+time in closed arms (sec)].

[2] = tested on: Wistar Kyoto (WKY) rats; assay: Novel object recognition (NOR) test in WKY rats, chronic administration; format: in vivo, rat; settings: MAP4343 15 mg/kg, s.c., 24 days
Method: Wistar Kyoto (WKY) rats are considered as a model of treatment-resistant depression, while Wistar (WI) rats are used as control strain of WKY rats. During this experiment both WI and WKY rats were administered with MAP4343 (15 mg/Kg), subcutaneously (s.c.) for 24 days. Behavioral tests were performed at during the last week of treatment, and rats were finally sacrificed for addressing neurogenesis in Gyrus dentate of hippocampus using histological experiments. Organization of this protocol is depicted in FIG. 7.
MAP4343 was diluted in sesame oil, and then administered subcutaneously (s.c.) at the dose of 15 mg/kg during 24 days. The vehicle group received only the sesame oil (1 ml/kg) in the similar conditions.
The NOR task is a test of recognition memory based on the spontaneous preference of rats for novelty. The applied procedure was based on that previously described by Ennaceur and Delacour (1988). NOR task was performed at D21 of the treatment period (see FIG. 7). In a first session (habituation, 5 min), each rat was familiarized with two identical objects placed in the border of the open-field area (70×100×70 cm). In a second session performed 1 h after (novel object recognition, 5 min), one of the two familiar objects was replaced by a novel object. […] Results are given as exploratory time for the novel object and the total exploratory time.

[3] = tested on: adult male Sprague Dawley rats; settings: U.S. Pat. No. 8,334,278, cited from earlier work
[4] = tested on: PC12 cells; settings: cited from earlier work
[5] = tested on: Noradrenergic α2; assay: CNS receptor binding assay, α2; settings: MAP4343 10 μM; [3H] RX 821002; rat cerebral cortex
Text: MAP4343 has been screened for in vitro affinity to 80 different CNS neurotransmitters receptors using various validated binding assays.

[6] = molecular target: T1, human progesterone receptor (PR) (Homo sapiens, UniProt P06401); assay: Test of progesterone receptor agonist activity (MMTV-luciferase transactivation in transfected HEK293T cells); format: cell-based; settings: 24 hours, increasing amounts, FIG. 1
T1 construct: expressed in transfected cells; host or cells: HEK293T
T1 sequence (P06401 1-933): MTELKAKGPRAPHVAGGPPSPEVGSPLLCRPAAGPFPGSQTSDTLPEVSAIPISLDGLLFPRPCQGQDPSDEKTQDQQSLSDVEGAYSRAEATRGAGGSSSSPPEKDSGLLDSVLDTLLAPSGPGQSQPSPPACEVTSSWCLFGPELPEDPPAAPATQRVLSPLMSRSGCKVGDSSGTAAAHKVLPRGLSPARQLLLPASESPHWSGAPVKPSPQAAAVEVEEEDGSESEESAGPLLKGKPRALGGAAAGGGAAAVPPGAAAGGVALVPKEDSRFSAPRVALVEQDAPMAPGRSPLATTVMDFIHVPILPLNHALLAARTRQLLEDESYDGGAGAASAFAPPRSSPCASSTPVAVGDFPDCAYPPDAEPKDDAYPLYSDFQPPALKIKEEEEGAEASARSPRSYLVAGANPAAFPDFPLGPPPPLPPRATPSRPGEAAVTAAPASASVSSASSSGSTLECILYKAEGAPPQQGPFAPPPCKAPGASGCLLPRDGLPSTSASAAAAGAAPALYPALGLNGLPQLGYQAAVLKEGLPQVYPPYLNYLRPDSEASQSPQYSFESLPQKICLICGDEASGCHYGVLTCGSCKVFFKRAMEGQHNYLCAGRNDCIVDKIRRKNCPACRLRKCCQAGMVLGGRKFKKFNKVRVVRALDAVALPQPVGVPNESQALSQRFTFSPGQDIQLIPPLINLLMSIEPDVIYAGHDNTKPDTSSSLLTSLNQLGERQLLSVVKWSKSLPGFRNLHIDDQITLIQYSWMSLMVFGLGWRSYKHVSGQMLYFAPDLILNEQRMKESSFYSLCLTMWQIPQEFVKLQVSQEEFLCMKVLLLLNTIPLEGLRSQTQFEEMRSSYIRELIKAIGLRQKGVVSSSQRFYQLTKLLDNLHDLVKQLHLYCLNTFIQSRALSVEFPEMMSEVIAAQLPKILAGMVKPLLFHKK
Method: The main experimental setting used is the following: HEK293T cells were transiently transfected, using calcium phosphate precipitation technology, with expression vectors pSG5hPR (which permits expression of human progesterone receptor (PR)), pFC31-luc (contains the luciferase gene under the control of the MMTV promoter, which is in turn activated by binding of a progestin to progesterone receptor) and pcbetagal (which permits expression of betagalactosidase), and cultured during 24 hours with increasing amounts of various compositions:
Test of Progesterone Receptor Agonist Activity: Transfected Cells were Cultured with Increasing Amounts of Progesterone or 3-Methoxy-Pregnenolone

CO[C@H]1CC[C@@]2(C)C(=CC[C@H]3[C@@H]4CC[C@H](C(C)=O)[C@@]4(C)CC[C@@H]32)C1 [MAP4343, 3β-methoxy-pregna-5-ene-20-one]
open-arm (OA) index in EPM, change vs WKY receiving vehicle alone [1]: 165% | time spent with the novel object in NOR, change vs WKY receiving only vehicle ([2]; FIG. 8B): +58% | total exploratory time in NOR, change vs WKY receiving only vehicle ([2]; FIG. 8C): +41% | memory retention in NOR ([3]; naïve adult male Sprague Dawley rats): increases memory retention | memory deficit in the NOR test ([3]; social-isolated adult male Sprague Dawley rats): induces recovery of memory deficit | neurite extension [4]: enhance neurite extension | % Inhibition of control specific binding [5]: 7% | progesterone receptor agonist activity (transactivation, expression of luciferase) [6]: does not have progesterone receptor agonist activity
